# Literature values, collected in patent US20060269596A1, “Controlled release compositions comprising an acylanilide” (priority 2005, published 2006).
# Legend:
# [1] = 37 C
smiles,measurement,setting,value
CC(O)(CS(=O)(=O)c1ccc(F)cc1)C(=O)Nc1ccc(C#N)c(C(F)(F)F)c1 (racemic) [Bicalutamide],absorption following oral administration,oral,well-absorbed
same,effect of co-administration with food on rate or extent of absorption,with food,no clinically significant effect
same,solubility in water,[1],5 mg per 1000 mL
